Species on record: Rattus norvegicus
Assay: DrugMatrix - Regimen: Daily Repeat
Assay type: toxicity, organism-based, Sprague-Dawley
Set-up: regimen Daily Repeat, gender Male, age 6-8 weeks
Conditions: in vivo, po, route oral GAVAGE, […]; for ABSOLUTE BASOPHIL / ABSOLUTE EOSINOPHIL / ABSOLUTE LYMPHOCYTE / ABSOLUTE MONOCYTE / ABSOLUTE SEGMENTED NEUTROPHIL / BASOPHIL / EOSINOPHIL / ERYTHROCYTE COUNT / HEMATOCRIT / HEMOGLOBIN / LEUKOCYTE COUNT / LYMPHOCYTE / MEAN CORPUSCULAR HEMOGLOBIN / MEAN CORPUSCULAR HEMOGLOBIN CONCENTRATION / MEAN CORPUSCULAR VOLUME / MONOCYTE / NEUTROPHIL / NUCLEATED RED BLOOD CELLS / PLATELET COUNT: tissue Blood; for ALANINE AMINOTRANSFERASE / ALKALINE PHOSPHATASE / ASPARTATE AMINOTRANSFERASE / BLOOD UREA NITROGEN / CARBON DIOXIDE / CHLORIDE / CHOLESTEROL / CREATINE PHOSPHOKINASE / CREATININE / GLUCOSE / LACTATE DEHYDROGENASE / LIPASE / PHOSPHORUS / POTASSIUM / SODIUM / TOTAL BILIRUBIN / TOTAL PROTEIN / URIC ACID: tissue Plasma
[1] = 22 mg/kg, 120 h, dose level High, time 5 day
[2] = 72 h, dose 2.5 mg/Kg, dose level Low, time 3 day
[3] = 120 h, dose 2.5 mg/Kg, dose level Low, time 5 day

Structure (SMILES): OCCN1CCN(CCCN2c3ccccc3Sc3ccc(C(F)(F)F)cc32)CC1 [FLUPHENAZINE]
- ABSOLUTE BASOPHIL [1]: 0 CELLS/uL
- ABSOLUTE EOSINOPHIL [1]: 112 CELLS/uL
- ABSOLUTE LYMPHOCYTE [1]: 12846 CELLS/uL
- ABSOLUTE MONOCYTE [1]: 29.33 CELLS/uL
- ABSOLUTE SEGMENTED NEUTROPHIL [1]: 379.33 CELLS/uL
- BASOPHIL [1]: 0%
- EOSINOPHIL [1]: 1.33%
- ERYTHROCYTE COUNT [1]: 6.02 x10E6/uL
- HEMATOCRIT [1]: 36.97%
- HEMOGLOBIN [1]: 14.2 G/DL
- LEUKOCYTE COUNT [1]: 13.37 x10E3/uL
- LYMPHOCYTE [1]: 95%
- MEAN CORPUSCULAR HEMOGLOBIN [1]: 23.6 pg
- MEAN CORPUSCULAR HEMOGLOBIN CONCENTRATION [1]: 38.43 G/DL
- MEAN CORPUSCULAR VOLUME [1]: 61.37 fL
- MONOCYTE [1]: 0.33%
- NEUTROPHIL [1]: 3.33%
- NUCLEATED RED BLOOD CELLS [1]: 0 /100WBC
- PLATELET COUNT [1]: 1170.67 x10E3/uL
- ALANINE AMINOTRANSFERASE [1]: 39.33 u/L
- ALKALINE PHOSPHATASE [1]: 322.67 u/L
- ASPARTATE AMINOTRANSFERASE [1]: 67.67 u/L
- BLOOD UREA NITROGEN [1]: 15.67 mg/dL
- CARBON DIOXIDE [1]: 26.67 mmol/L
- CHLORIDE [1]: 101.33 MEQ/L
- CHOLESTEROL [1]: 61.33 mg/dL
- CREATINE PHOSPHOKINASE [1]: 190.33 u/L
- CREATININE [1]: 0.13 mg/dL
- GLUCOSE [1]: 198.67 mg/dL
- LACTATE DEHYDROGENASE [1]: 80.67 u/L
- LIPASE [1]: 9.67 u/L
- PHOSPHORUS [1]: 9.4 mg/dL
- POTASSIUM [1]: 5.22 MEQ/L
- SODIUM [1]: 144.73 MEQ/L
- TOTAL BILIRUBIN [1]: 0.2 mg/dL
- TOTAL PROTEIN [1]: 6.13 G/DL
- URIC ACID [1]: 0.77 mg/dL
- ABSOLUTE BASOPHIL [2]: 0 CELLS/uL
- ABSOLUTE EOSINOPHIL [2]: 0 CELLS/uL
- ABSOLUTE LYMPHOCYTE [2]: 6619.33 CELLS/uL
- ABSOLUTE MONOCYTE [2]: 22 CELLS/uL
- ABSOLUTE SEGMENTED NEUTROPHIL [2]: 525.33 CELLS/uL
- BASOPHIL [2]: 0%
- EOSINOPHIL [2]: 0%
- ERYTHROCYTE COUNT [2]: 5.21 x10E6/uL
- HEMATOCRIT [2]: 33.8%
- HEMOGLOBIN [2]: 13.13 G/DL
- LEUKOCYTE COUNT [2]: 7.17 x10E3/uL
- LYMPHOCYTE [2]: 92.33%
- MEAN CORPUSCULAR HEMOGLOBIN [2]: 25.2 pg
- MEAN CORPUSCULAR HEMOGLOBIN CONCENTRATION [2]: 38.83 G/DL
- MEAN CORPUSCULAR VOLUME [2]: 64.97 fL
- MONOCYTE [2]: 0.33%
- NEUTROPHIL [2]: 7.33%
- NUCLEATED RED BLOOD CELLS [2]: 0 /100WBC
- PLATELET COUNT [2]: 973 x10E3/uL
- ALANINE AMINOTRANSFERASE [2]: 49.67 u/L
- ALKALINE PHOSPHATASE [2]: 458.33 u/L
- ASPARTATE AMINOTRANSFERASE [2]: 79.67 u/L
- BLOOD UREA NITROGEN [2]: 13.33 mg/dL
- CARBON DIOXIDE [2]: 33.67 mmol/L
- CHLORIDE [2]: 99.5 MEQ/L
- CHOLESTEROL [2]: 74 mg/dL
- CREATINE PHOSPHOKINASE [2]: 223.67 u/L
- CREATININE [2]: 0.14 mg/dL
- GLUCOSE [2]: 142.33 mg/dL
- LACTATE DEHYDROGENASE [2]: 61.33 u/L
- LIPASE [2]: 13.67 u/L
- PHOSPHORUS [2]: 9.77 mg/dL
- POTASSIUM [2]: 6.34 MEQ/L
- SODIUM [2]: 144.3 MEQ/L
- TOTAL BILIRUBIN [2]: 0.13 mg/dL
- TOTAL PROTEIN [2]: 5.33 G/DL
- URIC ACID [2]: 0.6 mg/dL
- ABSOLUTE BASOPHIL [3]: 0 CELLS/uL
- ABSOLUTE EOSINOPHIL [3]: 0 CELLS/uL
- ABSOLUTE LYMPHOCYTE [3]: 9833.67 CELLS/uL
- ABSOLUTE MONOCYTE [3]: 155 CELLS/uL
- ABSOLUTE SEGMENTED NEUTROPHIL [3]: 711.33 CELLS/uL
- BASOPHIL [3]: 0%
- EOSINOPHIL [3]: 0%
- ERYTHROCYTE COUNT [3]: 5.5 x10E6/uL
- HEMATOCRIT [3]: 35.1%
- HEMOGLOBIN [3]: 13.53 G/DL
- LEUKOCYTE COUNT [3]: 10.7 x10E3/uL
- LYMPHOCYTE [3]: 91.67%
- MEAN CORPUSCULAR HEMOGLOBIN [3]: 24.63 pg
- MEAN CORPUSCULAR HEMOGLOBIN CONCENTRATION [3]: 38.57 G/DL
- MEAN CORPUSCULAR VOLUME [3]: 63.83 fL
- MONOCYTE [3]: 1%
- NEUTROPHIL [3]: 7.33%
- NUCLEATED RED BLOOD CELLS [3]: 0 /100WBC
- PLATELET COUNT [3]: 1129.67 x10E3/uL
- ALANINE AMINOTRANSFERASE [3]: 57 u/L
- ALKALINE PHOSPHATASE [3]: 337 u/L
- ASPARTATE AMINOTRANSFERASE [3]: 75 u/L
- BLOOD UREA NITROGEN [3]: 15 mg/dL
- CARBON DIOXIDE [3]: 28 mmol/L
- CHLORIDE [3]: 99 MEQ/L
- CHOLESTEROL [3]: 72 mg/dL
- CREATINE PHOSPHOKINASE [3]: 195.33 u/L
- CREATININE [3]: 0.18 mg/dL
- GLUCOSE [3]: 180 mg/dL
- LACTATE DEHYDROGENASE [3]: 77.33 u/L
- LIPASE [3]: 10.67 u/L
- PHOSPHORUS [3]: 9.47 mg/dL
- POTASSIUM [3]: 4.99 MEQ/L
- SODIUM [3]: 144.87 MEQ/L
- TOTAL BILIRUBIN [3]: 0.23 mg/dL
- TOTAL PROTEIN [3]: 6.1 G/DL
- URIC ACID [3]: 0.5 mg/dL
